Results published in US10889812B2, “Short non-coding protein regulatory RNAs (sprRNAs) and methods of use” (University of Maryland, Baltimore, priority 2014, dated 2021).

Assays:
cleaved PARP = experiment: Western blot of cleaved PARP in CDDP treated SCC cells; assay type: cell-based, human; conditions: pre-treated SCC cells plus CDDP, vs Scr
Source text: (§1) Primary antibodies used were: anti-Moesin (1:1,000, Clone Q480, Catalog No. 3150, Cell Signaling), anti-p-ERM (Clone 41A3, Catalog No. 3149, Cell Signaling), anti-Moesin (Clone 38/Moesin, Catalog No. 610401, BD Transduction Laboratories), anti-p-Moesin (Thr558, Catalog No. 12895, Sanra Cruz), anti-β-actin (1:5,000, Catalog No. A228, Sigma-Aldrich), anti-EBP50 (1:100, Clone 6/EBP50, Catalog No. 61160, BD Transduction Laboratories), anti-F-actin (1:100, Clone NH3, Catalog No. MA1-80729, Thermor Fisher), anti-p-Wee 1 (Se53, 1:1000, Catalog No. sc-130223, Sanra Cruz), anti-Wee 1 (C-20, 1:1000, Catalog No. sc-325, Sanra Cruz), anti-p-Cdc2 (Tyr15, 1:1000, Catalog No. 9111, Cell Signaling), anti-p-Cdk (Thr14/Tyr15-R, 1:1000, Catalog No. sc-28435-R, Sanra Cruz), anti-Cdc2 p34 (H-297, 1:1000, Catalog No. sc-747, Sanra Cruz), anti-p-Cdc25C (Ser198, 1:1000, Catalog No. 9529, Cell Signaling), anti-CDK2 (78B2, 1:1000, Catalog No. 2546, Cell Signaling), anti-p-Histone H2AX (Ser139, 20E3, :1000, Catalog No. 9718, Cell Signaling), and anti-GFP (N-terminal, 1:4000, Catalog No. G1544, Sigma). Secondary antibodies used were: Goat anti-Mouse (1:2,500, Catalog No. 31160, Pierce), and Goat anti-Rabbit (1:2,500, Catalog No. 31460, Pierce). Cells were lysed in RIPA buffer (Sigma) on ice after washed in PBS twice, centrifuge at 160,000×g for 10 min at 4° C. […]

H157 and SKMES-1 cells [1] = experiment: MTT assay, cell killing by CDDP after Ant-138; assay type: cell-based, human; conditions: Ant-138 then CDDP (IC25 dose) six hours later, vs Scr pre-treated
Description: Cell viability and cell growth curve assay were determined by MTT assay and trypan blue exclusion assay, respectively as described previously (Kirino, Y. & Mourelatos, Z. Mouse Piwi-interacting RNAs are 2′-O-methylated at their 3′ termini Nat Struct Mol Biol. 14, 347-348 (2007)). BrieflySpecifically, MTT (5 mg/ml) was added into cells and incubated at culture condition for 3 hours, removed the medium carefully and dissolved formazan in DMSO, assay was used to assess the surviving cells and OD values were measured using Microplate Reader Manager (Bio Rad) at wavelengths of 570/690 nm. For trypan blue exclusion assay, cells were washed in PBS for three times, and dyed in 0.4% tyrpan blue solution. Unstained viable cells were counted in hemocytometer chamber under microscope. Each experiment was performed three times independently.
(§2) To determine if the increased piR-L-138 plays a functional role in CDDP treated SCC cells, we used DNA antisense oligos of piR-L-138 (Ant-138) to block piR-L-138 in H157 and SKMES-1 cells. Six hours after Ant-138 treatment, we treated the cells with CDDP (IC25 dose).

SCC cells = experiment: Annexin V staining assay, CDDP-induced apoptosis; assay type: cell-based, human; conditions: pre-treated SCC cells, vs Scr pre-treated
Source text: as §2

H157 and SKMES-1 cells [2] = experiment: Flow cytometry, sub-G1 phase after CDDP; assay type: cell-based, human; conditions: Ant-138 then CDDP (IC25 dose) six hours later, vs Scr
Description: Cell cycle distribution was analyzed by Flow Cytometry (Becton-Dickinson). Cells were synchronized in growth factor-free Keratinocyte-SFM with 2 mM Thymidine (Catalog No. T1895, Sigma-Aldrich) for 24 hrs. Transfection is performed using Lipofectamine™ RNAiMAX (Invitrogen) according to its manual, and the final concentration of annealed oligo RNAs is 400 nM. Four hour after transfection, culture medium was replaced by complete Keratinocyte-SFM supplemented with L-Glutamine, prequalified human recombinant EGF 1-53 and BPE. Cells were harvested at different time points, washed in phosphate-buffer saline (PBS), fixed with ice-cold 70% ethanol, and strained in PI/RNase solution (BD Pharmigen). The samples were analyzed on a FACScan flow cytometer in combination with BD lysis software (Becton-Dickinson).
as §2

MDM2 = experiment: Western blot of MDM2 cleavage and phosphorylation in SCC cells; assay type: cell-based, human; conditions: SCC cells pre-treated, upon CDDP treatment
Source text: as §1, with “C. Protein in supernatant was qualified using BCA™ protein assay kit (Thermo Scitific) and denatured in SDS loading buffer in boiling water, run 10% SDS-PAGE gel and transferred to nitrocellulose membrane (Thermo Scitific).” for “C.”
Next, we wanted to explore potential mechanism of piR-L-138-mediated apoptosis inhibition in CDDP treated lung SCC cells. We first analyzed cleaved PARP, a protein marker indicative of apoptosis, and found it was increased in the SCC cells pre-treated with Ant-138 compared with Scr pre-treated cells (FIG. 15d). As both of the SCC cell lines harbor p53 mutations, we analyzed mouse double minute 2 homolog (MDM2) which has been implicated in apoptosis including p53-independent pathway (Bohlman S, Manfredi J J. p53-independent effects of Mdm2. Subcell Biochem. 85,235-46 (2014); Bouska A, Eischen C M. Mdm2 affects genome stability independent of p53. Cancer Res. 69, 1697-701 (2009); Zhang, Z., Li, M., Wang, H., Agrawal, S., and Zhang, R. Antisense therapy targeting MDM2 oncogene in prostate cancer: Effects on proliferation, apoptosis, multiple gene expression, and chemotherapy. Proc. Natl. Acad. Sci. 100, 11636-11641 (2003); Zhang Z, Wang H, Li M, Agrawal S, Chen X, Zhang R. MDM2 Is a Negative Regulator of p21WAF1/CIP1, Independent of p53. […]

H157 tumor xenograft = H157 tumor xenograft model, intra-tumor injection of Ant-138 with CDDP; assay type: in vivo, mice
Source text: To further validate the interaction between piR-L-138 and MDM2 at the individual cell level, we performed fluorescence in situ hybridization (FISH) assay using a digoxin (DIG)-labelled RNA probe complimentary to piR-L-138 and an anti-MDM2 antibody. We first tested the probes in HBE4 cells which express high levels of piR-L-138 to ensure the sensitivity and specificity of the piR-L-138 probe and MDM2 antibody (FIG. 16c). […] This is consistent with the observed up-regulation of piR-L-138 in SCC cells upon CDDP treatment and the interaction between piR-L-138 and MDM2. Next, we used H157 tumor xenograft model to determine if targeting piR-L-138 can enhance CDDP-mediated tumor cell apoptosis in SCC in vivo. In this proof of principle experiment, we used intra-tumor injection of Ant-138 (SEQ ID NO:556) which was formulated with MaxSuppr in vivo RNALancerll as described previously (Wiggins J F, et al. Development of a Lung Cancer Therapeutic Based on the Tumor Suppressor MicroRNA-34. Cancer Res. 70, 5923-30(2010)) due to the requirement of very large quantity of formulated reagents needed for systemic delivery. […] Since we were using local injection with sub-optimal dose, such modest anti-tumor activity was expected. We were focusing on determining if Ant-138 increased apoptosis at the sites of injection by analyzing tumor tissue sections for cleaved caspase 3 as an indicator of apoptosis and Ant-138.

LAMC2 = LAMC2 expression by real time RT-PCR in HBE4 cells; assay type: cell-based, human
Source text: FIG. 11. Expression of piR-L-163 in NSCLC and HBE cell lines measured by real time RT-PCR. (a) piR-L-163 expression levels in individual cell lines. (b) piR-L-163 express ion levels in HBE, ADC and SCC as groups. All the values are averages of four independent replicates, error bars represent mean s.d., and * indicates p<0.01 by Student's t-test. (c) LAMC2 express ion levels in HBE4 cells measured by real time RT-PCR in the conditions as labeled. Values are averages of three independent replicates, error bars represent mean s.d., and ** indicates p<0.05 by Student's t-test.
We then wanted to determine whether piR-L-163 (SEQ ID NO:282) plays a functional role in human bronchial epithelial cells. We treated HBE4 cells as well as primary normal human bronchial epithelial (NHBE) cells with piR-L-163 complementary DNA oligonucleotides (Ant-163) (SEQ ID NO:496) or RNA oligonucleotides (Ant-163R) (SEQ ID NO:497) in the experiment. […] Cell cycle distributions were measured every 2 hrs.

phosphor-proteins = experiment: Western blots of phosphorylated proteins (p-Tyrosine, p-Theronin/Serine); assay type: cell-based, human; conditions: lung SCC cells treated with the DNA oligo
Source text: (§3) To test the potential impact of the candidate sprRNAs identified by phosphor-protein binding in the phosphorylation status of the proteins, we selected a panel of 5 sprRNAs with sizes ranging from 25-50 nt but sharing a common 25 nt sequence and used DNA oligo complementary to the common sequence (5′-[…]-3′) (SEQ ID NO:489) to block these sprRNAs.

lung SCC cell lines = experiment: MTT cell viability after DNA oligo blocking 5 sprRNAs; assay type: cell-based, human; conditions: twenty-four hours after treatment, 4 lung SCC cell lines
Source text: as §3

Ant-138: DNA sequence that is antisense to piR-L-138, SEQ ID NO:556 (antisense AGGTCTCAGAGTAATTCTAGAGCTAAAGT; listed as DNA, chemistry not given here)
cleaved PARP (cleaved PARP): increased
cell killing (MTT) (H157 and SKMES-1 cells [1]): significantly increased cell killing
sensitivity to CDDP-induced apoptosis (annexin V) (SCC cells): more sensitive to CDDP-induced apoptosis
proportion of the sub-G1 phase (H157 and SKMES-1 cells [2]): substantially increased proportion of the sub-G1 phase
MDM2 cleavage (MDM2): substantially reduced MDM2 cleavage
serine-166 phosphorylation in the cleaved MDM2 (MDM2): increase of serine-166 phosphorylation in the cleaved MDM2
caspase 3 positive tumor cells by Ant-138 level (immunofluorescence) (H157 tumor xenograft; tumors treated with CDDP and Ant-138): significantly concentrated caspase 3 positive tumor cells in areas with high levels of Ant-138
tumor size (H157 tumor xenograft; with CDDP, intra-tumor injection, vs untreated and CDDP plus Scr): smaller but the difference was only border line statistically
expression of cleaved caspase 3 in tumors (H157 tumor xenograft; with CDDP, vs CDDP and Scr control): higher expression of cleaved caspase 3

Ant-163R: piR-L-163 complementary RNA oligonucleotides, SEQ ID NO:497 (antisense GGUCAGAGAAUCAAAGUAACAUCAUGAUAU; listed as RNA, chemistry not given here)
expression levels of LAMC2 (LAMC2): reduced expression levels of LAMC2

DNA oligo complementary to the common sequence: DNA sequence antisense to SEQ ID NO:489 (AntiC, SEQ ID NO:558), blocks 5 sprRNAs sharing a common 25 nt sequence (antisense CGAACCCGGGCCGCGGCGGTGAGA; DNA, backbone and methylation of C not given here)
levels of phosphorylated proteins (phosphor-proteins): changes of levels in certain phosphor-proteins
cell viability (MTT) (lung SCC cell lines): significant growth inhibition
